# Data reported in ChEMBL document CHEMBL4373740, “Synthesis and biological evaluation of new MET inhibitors with 1,6-naphthyridinone scaffold” (Eur J Med Chem, 2020).
# Columns and labels:
# [1] = Clearance in Sprague-Dawley rat at 1.0 mg/kg, iv measured for 5 min to 72 hrs by LC-MS/MS analysis; assay type: ADME, organism-based; conditions: in vivo
# [2] = molecular target: Epidermal growth factor receptor (Homo sapiens) (UniProt P00533); assay: (§1) Inhibition of recombinant human GST-tagged EGFR (668 to 1210 residues) expressed in baculovirus expression system at 1 uM using biotin as substrate preincubated for 5 mins followed by substrate addition and measured after 30 to 60 mins in presence of ATP by HTRF assay relative to control
# [3] = AUC (0 to infinity) in Sprague-Dawley rat at 1.0 mg/kg, iv measured for 5 min to 72 hrs by LC-MS/MS analysis; assay type: ADME, organism-based; parameters: dose 1 mg/kg, time infinity, route intravenous; conditions: in vivo
# [4] = molecular target: Tyrosine-protein kinase Mer (Homo sapiens) (UniProt Q12866); assay: Inhibition of recombinant human GST-tagged cMER (578 to 872 residues) expressed in baculovirus infected Sf21 insect cells at 1 uM using biotin as substrate preincubated for 5 mins followed by substrate addition and measured after 30 to 60 mins in presence of ATP by HTRF assay relative to control
# [5] = molecular target: Receptor-type tyrosine-protein kinase FLT3 (Homo sapiens) (UniProt P36888); assay: Inhibition of recombinant full length human His-tagged FLT3 expressed in baculovirus expression system at 1 uM using biotin as substrate preincubated for 5 mins followed by substrate addition and measured after 30 to 60 mins in presence of ATP by HTRF assay relative to control
# [6] = molecular target: Tyrosine-protein kinase BTK (Homo sapiens) (UniProt Q06187); assay: Inhibition of recombinant full length human His-tagged BTK expressed in baculovirus expression system at 1 uM using biotin as substrate preincubated for 5 mins followed by substrate addition and measured after 30 to 60 mins in presence of ATP by HTRF assay relative to control
# [7] = molecular target: Macrophage colony-stimulating factor 1 receptor (Homo sapiens) (UniProt P07333); assay: Inhibition of recombinant full length human His-tagged CSF1R expressed in baculovirus expression system at 1 uM using biotin as substrate preincubated for 5 mins followed by substrate addition and measured after 30 to 60 mins in presence of ATP by HTRF assay relative to control
# Chain of Macrophage colony-stimulating factor 1 receptor (Homo sapiens) (P07333 whole entry, the tested form may be a part): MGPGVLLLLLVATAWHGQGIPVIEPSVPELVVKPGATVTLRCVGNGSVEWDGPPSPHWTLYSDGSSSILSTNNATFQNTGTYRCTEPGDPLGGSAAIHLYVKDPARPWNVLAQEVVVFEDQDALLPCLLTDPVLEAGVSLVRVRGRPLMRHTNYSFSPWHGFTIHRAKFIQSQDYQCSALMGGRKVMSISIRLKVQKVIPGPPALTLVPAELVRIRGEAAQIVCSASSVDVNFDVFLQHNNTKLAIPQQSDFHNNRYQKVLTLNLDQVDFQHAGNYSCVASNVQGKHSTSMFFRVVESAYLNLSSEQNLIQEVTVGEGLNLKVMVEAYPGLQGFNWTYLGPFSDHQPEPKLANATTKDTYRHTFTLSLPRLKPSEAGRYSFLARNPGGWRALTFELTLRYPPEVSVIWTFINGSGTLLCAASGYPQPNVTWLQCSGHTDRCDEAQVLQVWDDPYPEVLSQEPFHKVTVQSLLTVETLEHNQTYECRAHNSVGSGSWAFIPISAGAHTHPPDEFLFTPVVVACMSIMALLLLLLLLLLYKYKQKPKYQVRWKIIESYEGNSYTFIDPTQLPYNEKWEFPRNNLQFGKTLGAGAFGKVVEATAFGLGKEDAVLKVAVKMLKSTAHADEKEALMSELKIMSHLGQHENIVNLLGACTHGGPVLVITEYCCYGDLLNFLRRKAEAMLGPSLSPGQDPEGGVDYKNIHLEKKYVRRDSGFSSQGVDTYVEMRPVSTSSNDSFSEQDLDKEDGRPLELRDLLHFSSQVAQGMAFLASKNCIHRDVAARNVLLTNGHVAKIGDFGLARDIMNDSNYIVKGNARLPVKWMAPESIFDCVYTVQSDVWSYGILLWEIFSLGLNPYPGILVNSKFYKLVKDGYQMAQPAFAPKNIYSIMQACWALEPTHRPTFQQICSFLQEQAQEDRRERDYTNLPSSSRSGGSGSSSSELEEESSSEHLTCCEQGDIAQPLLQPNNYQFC
# [8] = molecular target: Angiopoietin-1 receptor (Homo sapiens, UniProt Q02763); assay: Inhibition of recombinant human GST-tagged TEK (817 to 1101 residues) expressed in baculovirus expression system using biotin as substrate preincubated for 5 mins followed by substrate addition and measured after 30 to 60 mins in presence of ATP by HTRF assay
# [9] = molecular target: Proto-oncogene tyrosine-protein kinase ROS (Homo sapiens) (UniProt P08922); assay: as §1, with “ROS1 catalytic domain (1883” for “EGFR (668”, “2347” for “1210”
# Chain of Proto-oncogene tyrosine-protein kinase ROS (Homo sapiens) (P08922 whole entry, the tested form may be a part): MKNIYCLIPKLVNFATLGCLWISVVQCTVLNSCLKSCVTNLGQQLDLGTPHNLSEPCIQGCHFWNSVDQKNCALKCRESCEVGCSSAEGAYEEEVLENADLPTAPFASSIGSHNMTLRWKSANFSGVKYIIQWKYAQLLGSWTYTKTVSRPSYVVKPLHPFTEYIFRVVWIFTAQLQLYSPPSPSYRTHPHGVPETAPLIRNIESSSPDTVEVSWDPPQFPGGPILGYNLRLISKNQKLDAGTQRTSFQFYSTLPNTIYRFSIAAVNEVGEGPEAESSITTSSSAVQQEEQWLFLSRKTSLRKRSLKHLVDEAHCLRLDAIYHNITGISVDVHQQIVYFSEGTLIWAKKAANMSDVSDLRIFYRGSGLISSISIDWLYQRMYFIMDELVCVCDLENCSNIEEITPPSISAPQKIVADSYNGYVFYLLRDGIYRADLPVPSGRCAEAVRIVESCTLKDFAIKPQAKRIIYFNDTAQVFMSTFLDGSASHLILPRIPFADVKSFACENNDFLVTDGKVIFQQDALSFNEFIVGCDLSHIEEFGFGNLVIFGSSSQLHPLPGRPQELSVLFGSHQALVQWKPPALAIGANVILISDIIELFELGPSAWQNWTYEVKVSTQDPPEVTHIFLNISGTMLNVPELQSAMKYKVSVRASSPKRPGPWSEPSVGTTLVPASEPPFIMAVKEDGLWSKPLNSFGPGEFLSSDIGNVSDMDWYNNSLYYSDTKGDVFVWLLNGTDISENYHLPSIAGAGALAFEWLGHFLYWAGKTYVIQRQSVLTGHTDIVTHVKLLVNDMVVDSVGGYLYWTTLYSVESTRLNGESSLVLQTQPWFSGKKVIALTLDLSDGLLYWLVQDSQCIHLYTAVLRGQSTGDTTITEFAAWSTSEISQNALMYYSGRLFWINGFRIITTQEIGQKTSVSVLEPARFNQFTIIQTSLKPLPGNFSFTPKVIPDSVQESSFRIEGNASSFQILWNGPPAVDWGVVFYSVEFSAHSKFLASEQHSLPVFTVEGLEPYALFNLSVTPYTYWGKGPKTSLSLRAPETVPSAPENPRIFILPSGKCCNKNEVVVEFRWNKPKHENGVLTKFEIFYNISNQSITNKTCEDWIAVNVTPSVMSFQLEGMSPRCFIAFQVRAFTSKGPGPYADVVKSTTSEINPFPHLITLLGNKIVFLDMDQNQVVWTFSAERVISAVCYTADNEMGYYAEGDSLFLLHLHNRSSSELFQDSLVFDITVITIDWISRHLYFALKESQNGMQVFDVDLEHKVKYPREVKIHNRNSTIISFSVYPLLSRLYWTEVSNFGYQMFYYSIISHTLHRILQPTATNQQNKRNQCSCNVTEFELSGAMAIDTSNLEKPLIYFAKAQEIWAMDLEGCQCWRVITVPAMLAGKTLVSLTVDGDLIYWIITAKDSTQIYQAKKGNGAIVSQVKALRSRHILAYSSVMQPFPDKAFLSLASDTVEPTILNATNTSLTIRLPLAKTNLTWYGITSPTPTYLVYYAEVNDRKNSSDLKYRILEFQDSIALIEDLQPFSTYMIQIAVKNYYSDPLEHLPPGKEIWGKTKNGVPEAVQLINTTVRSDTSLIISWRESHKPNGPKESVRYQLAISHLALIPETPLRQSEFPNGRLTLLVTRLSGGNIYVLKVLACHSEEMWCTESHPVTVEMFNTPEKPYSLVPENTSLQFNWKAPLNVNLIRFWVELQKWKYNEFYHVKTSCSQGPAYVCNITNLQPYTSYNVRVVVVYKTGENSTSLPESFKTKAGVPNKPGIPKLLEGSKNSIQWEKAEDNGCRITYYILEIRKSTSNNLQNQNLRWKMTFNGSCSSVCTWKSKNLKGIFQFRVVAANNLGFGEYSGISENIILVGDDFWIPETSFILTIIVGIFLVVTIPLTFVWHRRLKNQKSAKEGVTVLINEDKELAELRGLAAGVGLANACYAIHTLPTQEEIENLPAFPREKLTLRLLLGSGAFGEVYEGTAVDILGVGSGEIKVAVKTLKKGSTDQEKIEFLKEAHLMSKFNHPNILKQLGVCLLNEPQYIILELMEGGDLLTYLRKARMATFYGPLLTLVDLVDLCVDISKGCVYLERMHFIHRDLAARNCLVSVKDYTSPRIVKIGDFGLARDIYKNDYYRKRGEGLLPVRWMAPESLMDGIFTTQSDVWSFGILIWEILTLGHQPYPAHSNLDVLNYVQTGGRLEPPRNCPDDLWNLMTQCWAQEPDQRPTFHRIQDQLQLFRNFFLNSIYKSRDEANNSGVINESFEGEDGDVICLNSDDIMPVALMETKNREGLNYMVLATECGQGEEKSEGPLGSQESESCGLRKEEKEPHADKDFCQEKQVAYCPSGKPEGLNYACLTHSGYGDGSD
# [10] = molecular target: cAMP-dependent protein kinase catalytic subunit alpha (Homo sapiens) (UniProt P17612); assay: Inhibition of recombinant full length human His-tagged PRKACA expressed in Escherichia coli at 1 uM using biotin as substrate preincubated for 5 mins followed by substrate addition and measured after 30 to 60 mins in presence of ATP by HTRF assay relative to control
# [11] = test system: HT-29; assay: Antiproliferative activity against human HT-29 cells at 10 uM incubated for 72 hrs by MTT assay relative to control; assay type: functional; conditions: HT-29, 72 h
# [12] = molecular target: Mitogen-activated protein kinase 3 (Homo sapiens) (UniProt P27361); assay: Inhibition of recombinant full length human GST-tagged MAPK3 expressed in Escherichia coli at 1 uM using biotin as substrate preincubated for 5 mins followed by substrate addition and measured after 30 to 60 mins in presence of ATP by HTRF assay relative to control
# [13] = molecular target: ALK tyrosine kinase receptor (Homo sapiens) (UniProt Q9UM73); assay: Inhibition of human GST-tagged ALK cytoplasmic domain (1060 to end residues) expressed in sf9 cells at 1 uM using biotin as substrate preincubated for 5 mins followed by substrate addition and measured after 30 to 60 mins in presence of ATP by HTRF assay relative to control
# [14] = molecular target: Serine/threonine-protein kinase TBK1 (Homo sapiens) (UniProt Q9UHD2); assay: Inhibition of recombinant full length human GST-tagged TBK1 expressed in insect cells at 1 uM using biotin as substrate preincubated for 5 mins followed by substrate addition and measured after 30 to 60 mins in presence of ATP by HTRF assay relative to control
# Chain of Serine/threonine-protein kinase TBK1 (Homo sapiens) (Q9UHD2 whole entry, the tested form may be a part): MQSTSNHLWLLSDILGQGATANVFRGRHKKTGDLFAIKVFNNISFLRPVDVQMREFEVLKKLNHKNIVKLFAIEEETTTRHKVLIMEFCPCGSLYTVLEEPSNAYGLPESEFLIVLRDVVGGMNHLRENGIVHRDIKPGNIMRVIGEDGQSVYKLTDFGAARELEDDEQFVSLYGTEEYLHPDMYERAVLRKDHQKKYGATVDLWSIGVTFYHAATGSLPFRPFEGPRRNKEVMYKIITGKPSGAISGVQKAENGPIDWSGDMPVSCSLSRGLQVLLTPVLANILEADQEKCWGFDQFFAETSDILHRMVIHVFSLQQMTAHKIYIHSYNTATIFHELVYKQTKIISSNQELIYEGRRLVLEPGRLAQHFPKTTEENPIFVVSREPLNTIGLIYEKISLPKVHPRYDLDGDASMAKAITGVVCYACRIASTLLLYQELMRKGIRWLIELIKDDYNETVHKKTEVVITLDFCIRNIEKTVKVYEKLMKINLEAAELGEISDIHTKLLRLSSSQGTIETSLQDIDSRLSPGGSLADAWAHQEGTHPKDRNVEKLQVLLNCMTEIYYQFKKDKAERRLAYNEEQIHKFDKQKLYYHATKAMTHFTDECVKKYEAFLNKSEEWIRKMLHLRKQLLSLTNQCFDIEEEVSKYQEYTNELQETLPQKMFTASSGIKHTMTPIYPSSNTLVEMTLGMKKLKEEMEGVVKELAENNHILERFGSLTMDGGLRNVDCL
# [15] = molecular target: Vascular endothelial growth factor receptor 3 (Homo sapiens, UniProt P35916); assay: as §1, with “FLT4 catalytic domain (800” for “EGFR (668”, “1297” for “1210”
# [16] = Cmax in Sprague-Dawley rat at 1.0 mg/kg, iv measured for 5 min to 72 hrs by LC-MS/MS analysis; assay type: ADME, organism-based; parameters: dose 1 mg/kg, route intravenous; conditions: in vivo
# [17] = molecular target: BDNF/NT-3 growth factors receptor (Homo sapiens, UniProt Q16620); assay: Inhibition of recombinant human His-tagged TRKB catalytic domain (526 to 838 residues) expressed in baculovirus expression system using biotin as substrate preincubated for 5 mins followed by substrate addition and measured after 30 to 60 mins in presence of ATP by HTRF assay
# [18] = in vitro; conditions: human, liver microsomes
# [19] = molecular target: Tyrosine-protein kinase receptor UFO (Homo sapiens, UniProt P30530); assay: Inhibition of recombinant […] human N-terminal GST-tagged AXL (473 to end residues) expressed in baculovirus infected Sf21 insect cells using biotin as substrate preincubated for 5 mins followed by substrate addition and measured after 30 to 60 mins in presence of ATP by HTRF assay
# Chain of Tyrosine-protein kinase receptor UFO (P30530 whole entry, the tested form may be a part): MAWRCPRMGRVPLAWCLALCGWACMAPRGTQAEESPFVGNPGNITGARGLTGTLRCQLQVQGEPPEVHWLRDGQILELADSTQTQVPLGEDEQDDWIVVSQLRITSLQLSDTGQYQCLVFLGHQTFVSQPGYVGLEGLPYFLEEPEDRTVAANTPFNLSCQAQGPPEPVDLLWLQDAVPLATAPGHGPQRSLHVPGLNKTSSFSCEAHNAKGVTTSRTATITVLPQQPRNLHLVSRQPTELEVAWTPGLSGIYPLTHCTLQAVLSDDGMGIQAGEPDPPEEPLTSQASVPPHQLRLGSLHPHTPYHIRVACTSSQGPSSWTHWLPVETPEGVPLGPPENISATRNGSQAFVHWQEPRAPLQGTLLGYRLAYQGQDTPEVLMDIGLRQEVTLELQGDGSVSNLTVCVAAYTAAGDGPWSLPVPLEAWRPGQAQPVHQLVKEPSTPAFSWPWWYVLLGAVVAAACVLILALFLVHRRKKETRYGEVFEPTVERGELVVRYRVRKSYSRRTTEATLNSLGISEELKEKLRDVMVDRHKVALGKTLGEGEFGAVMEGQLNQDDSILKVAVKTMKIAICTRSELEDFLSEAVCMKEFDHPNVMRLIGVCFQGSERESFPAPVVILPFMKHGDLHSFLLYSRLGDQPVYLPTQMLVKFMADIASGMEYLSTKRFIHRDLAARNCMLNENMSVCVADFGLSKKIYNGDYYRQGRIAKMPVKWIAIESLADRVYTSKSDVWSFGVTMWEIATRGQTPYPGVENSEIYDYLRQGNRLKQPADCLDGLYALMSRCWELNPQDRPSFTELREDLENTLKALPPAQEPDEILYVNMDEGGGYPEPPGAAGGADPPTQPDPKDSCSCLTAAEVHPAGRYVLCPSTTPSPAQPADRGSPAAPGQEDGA
# [20] = molecular target: Vascular endothelial growth factor receptor 2 (Homo sapiens, UniProt P35968); assay: Inhibition of purified recombinant VEGFR2 kinase domain (unknown origin) using biotin as substrate preincubated for 5 mins followed by substrate addition and measured after 30 to 60 mins in presence of ATP by HTRF assay
# [21] = molecular target: Tyrosine-protein kinase Fgr (Homo sapiens) (UniProt P09769); assay: Inhibition of recombinant full length human His-tagged FGR expressed in baculovirus expression system at 1 uM using biotin as substrate preincubated for 5 mins followed by substrate addition and measured after 30 to 60 mins in presence of ATP by HTRF assay relative to control
# [22] = molecular target: Dual specificity tyrosine-phosphorylation-regulated kinase 4 (Homo sapiens) (UniProt Q9NR20); assay: Inhibition of recombinant human GST-tagged DYRK4 expressed in baculovirus system at 1 uM using biotin as substrate preincubated for 5 mins followed by substrate addition and measured after 30 to 60 mins in presence of ATP by HTRF assay relative to control
# [23] = Mean residence time in Sprague-Dawley rat at 1.0 mg/kg, iv measured for 5 min to 72 hrs by LC-MS/MS analysis; assay type: ADME, organism-based; conditions: in vivo
# [24] = molecular target: Tyrosine-protein kinase Mer (Homo sapiens, UniProt Q12866); assay: Inhibition of recombinant human GST-tagged cMER (578 to 872 residues) expressed in baculovirus infected Sf21 insect cells using biotin as substrate preincubated for 5 mins followed by substrate addition and measured after 30 to 60 mins in presence of ATP by HTRF assay
compound,measurement,setting,value
Cn1cc(-c2ccc(F)cc2)c(=O)c2c(Nc3ccc(Oc4ccnc(NC(=O)C5CC5)c4)c(F)c3)nccc21,clearance,[1],0.167 mL/min/kg
same,inhibition,[2],< 50%
same,AUC(0-inf),[3],80600 ng·h/mL
same,inhibition,[4],> 80%
same,inhibition,[5],> 80%
same,inhibition,[6],< 50%
same,inhibition,[7],< 50%
same,IC50,[8],26.3 nM
same,inhibition,[9],< 50%
same,inhibition,[10],< 50%
same,inhibition at 10 µM,[11],24.8%
same,inhibition,[12],< 50%
same,inhibition,[13],< 50%
same,inhibition,[14],< 50%
same,inhibition,[15],< 50%
same,Cmax,[16],6500 ng/mL
same,IC50,[17],58.8 nM
same,half-life,[18],14.7 h
same,IC50,[19],8.2 nM
same,IC50,[20],22900 nM
same,inhibition,[21],> 80%
same,inhibition,[22],< 50%
same,MRT,[23],10.8 h
same,IC50,[24],4.2 nM
